Patent US20100204460A1, “NATURAL BRASSINOSTEROIDS FOR USE FOR TREATING HYPERPROLIFERATION, TREATING PROLIFERATIVE DISEASES AND REDUCING ADVERSE EFFECTS OF STEROID DYSFUNCTION IN MAMMALS, PHARMACEUTICAL COMPOSITION AND ITS USE” (priority 2007, published 2010)
Like-named read-outs stand apart in the source and are kept apart here.

How the values were obtained:
LNCaP cells = test: Cell cycle distribution by flow cytometry, LNCaP; assay type: cell-based; settings: IC50, 24 h; for Apoptosis subG1 fraction: control 8%; for Cell cycle distribution S: control 14%; for Cell cycle distribution G2/M: control 16%; for Cell cycle distribution G1: control 70%
Source text: In the MCF-7 breast cancer cell line that has been the most widely studied experimental cell system, the typical growth inhibitory response to antiestrogens is decrease in the proportion of cells synthesising DNA (S phase) after antiestrogen treatment. This decrease in S phase coincides with an increase in the proportion of cells in G0/G1 phase. The activity of the androgen receptor (AR) is also regulated by alterations in cell signaling. There has been reported ligand independent activation of AR in prostate cancer cells by different growth factors. As the AR can be activated in the absence of hormone, it appears that the conditions may be more restricted than those observed for ER. Use of physiologic doses of ligand (dihydrotestosterone, DHT) is of importance as the LNCaP cells proliferate only at DHT concentration of 10^−9 M or lower. […] In contrast to proliferation, transactivation of AR specific target genes (e.g. PSA) continues to increase with DHT doses of 10^−10 M and higher. It might be accepted for estrogen or androgen receptors as stronger cytotoxic activities of brassinosteroids 9 or 6 on hormone-sensitive (MCF-7, LNCaP) compared to hormone-insensitive (MDA-MB-468, DU-145) cell lines were found. Therefore we explored the possibility of cell cycle perturbation by BRs in different cancer cell lines. Flow cytometry was used to evaluate the number of cells in the particular phases of the cell cycle, including subG1 peak detection. Control and treated cells were washed twice with cold PBS and centrifuged at 360×g for 10 min at 4° C., and fixed with chilled ethanol (70%; v/v) by low-speeded vortexing. For detection of DNA content analysis, propidium iodide staining was used. The cells were analyzed using a FACSCalibur flow cytometer (BD Biosciences, San Jose, Calif.).
Flow-cytometric detection of apoptosis. Several studies have declared that the induction of apoptosis may be cell cycle-dependent. Therefore, in our next series of experiments, we tested if brassinosteroids 9 or 6 cause apoptosis of the breast and prostate cancer cells via cell cycle blockage. From this reason we carried out DNA cell cycle analysis by flow cytometry based on detection of endonucleolytic DNA degradation that results in extraction of low molecular weight DNA from the cells. […] The subG1 peak containing apoptotic bodies was however not observed in MCF-7 cells.

measles virus (MV) = settings: cited from earlier work
arena viruses = settings: cited from earlier work
[1] = tested on: normal and cancer cell lines of different histopathological origin; test: Calcein AM cytotoxicity assay, summary statements over the cell line panel; assay type: cell-based; settings: versus 28-homobrassinolide 2
Method: Stock solutions ([…]) were prepared by dissolving relevant quantity of substance in DMSO cultivation media (DMEM, RPMI 1640, F-12 medium), fetal bovine serum (FBS), L-glutamine, penicillin, and streptomycin were purchased from Sigma (MO, USA). 3-(4,5-Dimethylthiazol-2-yl)-2,5-diphenyltetrazolium bromide (MTT) was from Serva Electrophoresis (Heidelberg, Germany). Monoclonal mouse anti-bromodeoxyuridine (BrdU) intibody was obtained from DakoCytomation (Glostrup, Denmark). Calcein AM was obtained from PAA Laboratories GmbH (Pasching, Austria). The screening cell lines (T-lymphoblastic leukaemia cell line CEM; breast carcinoma cell line MCF-7 (estrogen-sensitive), breast adenocarcinoma cell line MDA-MB 468 (cell lines LNCaP (androgen-sensitive), prostate carcinoma cell line DU-145 ([…]), lung carcinoma cell line A-549, chronic myelogenous leukemia cell line K562, multiple myeloma cell line RPMI 8226, cervical carcinoma cell line HeLa, malignant human melanoma cell line G361, osteosarcoma cell line HOS, and normal human fibroblasts (BJ) were obtained from the American Type Culture Collection (Manassas, Va., USA). MCF-7 cells were cultured in F-12 medium (Sigma, MO, USA). LNCaP cells were cultured in RPMI 1640 medium (GIBCO, USA). All other cells were cultured in DMEM medium (Sigma, MO, USA). All used media were supplemented with 10% heat-inactivated fetal bovine serum, 2 mmol/L L-glutamine, 1% penicillin/streptomycin. The cell lines were maintained under standard cell culture conditions at 37° C. and 5% CO2 in a humid environment. Cells were subcultured twice or three times a week using the standard trypsinization procedure (Sigma, USA).
The cell suspension of approximate density of 1.25×10^5 cells/mL was redistributed into 96-well microtitre plates and after 12 h of stabilization the tested Brassinosteroids (BRs) were added in different concentrations. BRs were dissolved in DMSO. Control cultures were treated with DMSO alone. The final concentration of DMSO in the reaction mixture never exceeded 1%. Tested compounds in given concentrations were added at time zero in 20 μL aliquots to the microtiter plate wells. Usually, each test compound was evaluated at six 4-fold dilutions. In routine testing, the highest well concentration was 50 μmol, but it can be the matter of change dependent on the agent. Cultivation proceeds 96 h at 37° C., the cells were incubated with Calcein AM solution (Molecular Probes) for 1 h. Fluorescence (OD) of viable cells was quantified with Fluoroscan Ascent (Microsystems). The cell survival (IC50) was calculated using the following equation: IC50=(ODdrug exposed well/mean ODcontrol wells)×100%. Each compound was tested in triplicates and the test was repeated at least 3 times. The IC50 value, corresponding to drug concentration lethal to 50% of the tumor cells, was calculated from the obtained dose response curves.
We investigated effects of brassinosteroid on viability of normal and cancer cell lines of different histopathological origin. To evaluate the cytotoxic properties of several BRs and some related steroids, we used T-lymphoblastic leukaemia cell line CEM, breast carcinoma cell line MCF-7, lung carcinoma cell line A-549, chronic myeloid leukaemia cell line K562, multiple myeloma cell line RPMI 8226, cervical carcinoma cell line HeLa, malignant melanoma cell line G361, osteosarcoma cell line HOS, and normal human fibroblasts BJ. The cells were exposed to six 4-fold dilutions of each drug for 72 h to determinate number of surviving cells.

[2] = tested on: herpes simplex virus type 1 (HSV-1); settings: cited from earlier work
[3] = tested on: T-lymphoblastic leukaemia cell line CEM; test: Calcein AM cytotoxicity assay, CEM; assay type: cell-based; settings: CEM; six 4-fold dilutions, exposure 72 h (b71 says 96 h); mean ± SD; read-out: IC50 assessed by Calcein AM assay of surviving cells
[4] = tested on: multiple myeloma cell line RPMI 8226; test: Calcein AM cytotoxicity assay, RPMI 8226; assay type: cell-based; settings: RPMI 8226; exposure 72 h (b71 says 96 h); mean ± SD; read-out: IC50 assessed by Calcein AM assay of surviving cells
[5] = tested on: cultured mouse hybridoma cells; settings: cited from earlier work; for density of viable cells / growth: mouse hybridoma cells, concentrations of 10^−13 mol/L and 10^−12 mol/L

Row | Structure (SMILES) | Apoptosis subG1 fraction (LNCaP cells) | Cell cycle distribution S (LNCaP cells) | Cell cycle distribution G2/M (LNCaP cells) | Cell cycle distribution G1 (LNCaP cells) | in vitro antiviral activity (measles virus (MV)) | in vitro antiviral activity (arena viruses) | strength of growth inhibitory response relative to 28-homobrassinolide 2 [1] | in vitro antiviral activity [2] | IC50 [3] | IC50 [4] | S-phase cells ([5]; cultured mouse hybridoma cells) | fraction of the cells in G0/G1 phase ([5]; cultured mouse hybridoma cells) | intracellular antibody level ([5]; cultured mouse hybridoma cells) | value of mitochondrial membrane potential ([5]; cultured mouse hybridoma cells) | density of viable cells / growth ([5]; listed as 6) | density of viable cells / growth ([5]; listed as 24-epibrassinolide)
1 | CC[C@@H](C(C)C)[C@@H](O)[C@H](O)[C@@H](C)[C@H]1CC[C@H]2[C@@H]3CC(=O)[C@H]4C[C@H](O)[C@H](O)C[C@]4(C)[C@H]3CC[C@]12C [Brassinosteroid 9, 28-Homocastasterone] | 18% | 2% | 4% | 94% | in vitro antiviral activity | in vitro antiviral activity | about 3 times | in vitro antiviral activity | 13 µM | 26 ± 1.4 µM | – | – | – | – | – | –
2 | CC(C)[C@@H](C)[C@@H](O)[C@H](O)[C@@H](C)[C@H]1CC[C@H]2[C@@H]3COC(=O)[C@H]4C[C@H](O)[C@H](O)C[C@]4(C)[C@H]3CC[C@]12C [Brassinosteroid 6, 24-Epibrassinolide] | 47% | 5% | 9% | 86% | – | – | – | – | 44 ± 2.2 µM | > 50 µM | decrease of S-phase cells | increase in the fraction of the cells in G0/G1 phase | decrease of intracellular antibody level | increase in the value of mitochondrial membrane potential | significant positive effect | significantly higher
